This passage reports melting point results from patent US20050080113A1, “Medicinal compositions” (priority 2001, published 2005).

Structures are written as SMILES.

Broadly, the melting point is the temperature, or range, at which the solid turns liquid.

In the case of `Cc1cccc(-c2nc(NC(=O)Nc3ccccc3)sc2-c2ccnc(NC3CCCC3)c2)c1` [H 53-3, N-[5 (2 cyclopentylamino-4 pyridyl)-4 (3 methylphenyl)-1,3 thiazol-2 yl]-N′-phenylurea], the melting point is 188 to 190 °C.

Take `Cc1cccc(-c2nc(NC(=O)Nc3ccccc3)sc2-c2ccnc(C)c2)c1` [H 53-4, N-[4 (3 methylphenyl)-5-(2 methyl-4 pyridyl)-1,3 thiazol-2 yl]-N′-phenylurea]: the melting point lay in the range of 168 to 169 °C.

Regarding `Cc1cccc(-c2nc(-c3ccc([S+](C)[O-])cc3)sc2-c2ccnc(C)c2)c1` (stereo not drawn) [H 54, 4-(3-methylphenyl)-5-(2-methyl-4-pyridyl)-2-(4-methylsulfinylphenyl)-1,3-thiazole], the melting point lay in the range of 128 to 130 °C.

On to `Cc1cccc(-c2nc(-c3ccc([S+](C)[O-])cc3)sc2-c2cc(C)nc(C)c2)c1` (stereo not drawn) [H 55, 5 (2,6 dimethyl-4 pyridyl)-4 (3 methylphenyl)-2 (4-methylsulfinylphenyl)-1,3 thiazole], for which the melting point fell in the range of 133 to 134 °C.

`Cc1cc(C)cc(-c2nc(-c3ccc([S+](C)[O-])cc3)sc2-c2ccnc(C)c2)c1` (stereo not drawn) [H 56-1, 4 (3,5 dimethylphenyl)-5-(2 methyl-4 pyridyl)-2 (4 methylsulfinylphenyl)-1,3 thiazole] came in with a melting point of 151 to 153 °C.

As for `Cc1cc(C)cc(-c2nc(-c3ccc([S+](C)[O-])cc3)sc2-c2cc(C)nc(C)c2)c1` (stereo not drawn) [H 56-2, 4 (3,5 dimethylphenyl)-5-(2,6 dimethyl-4 pyridyl)-2 (4 methylsulfinylphenyl)-1,3-thiazole], the melting point was in the range of 151 to 154 °C.

In turn, `Cc1cc(C)cc(-c2nc(-c3ccc(S(C)(=O)=O)cc3)sc2-c2ccnc(C)c2)c1` [H 58-1, 4 (3,5 dimethylphenyl)-5-(2 methyl-4 pyridyl)-2 (4 methylsulfonylphenyl)-1,3 thiazole] came in with a melting point of 196 to 197 °C.

The compound `Cc1cccc(-c2nc(-c3ccc(S(C)(=O)=O)cc3)sc2-c2cc(C)nc(C)c2)c1` [H 58-2, 5 (2,6 dimethyl-4-pyridyl)-4 (3 methylphenyl)-2 (4 methylsulfonylphenyl)-1,3-thiazole] returned a melting point of 182 to 184 °C.

Take `Cc1cc(C)cc(-c2nc(-c3ccc(S(C)(=O)=O)cc3)sc2-c2cc(C)nc(C)c2)c1` [H 58-3, 4 (3,5 dimethylphenyl)-5-(2,6 dimethyl-4 pyridyl)-2 (4 methylsulfonylphenyl)-1,3-thiazole]: the melting point lay within 217 to 220 °C.

`Cc1cccc(-c2nc(-c3ccc(S(C)(=O)=O)cc3)sc2-c2ccnc(F)c2)c1` [H 58-4, 5-(2-fluoro-4-pyridyl)-4-(3-methylphenyl)-2-(4-methylsulfonylphenyl)-1,3-thiazole]: the melting point lay in the range of 195 to 199 °C.

In the case of `Cc1cc(-c2sc(-c3ccc(S(C)(=O)=O)cc3)nc2-c2ccc(F)cc2)ccn1` [H 58-5, 4 (4 fluorophenyl)-5 (2-methyl-4 pyridyl)-2 (4 methylsulfonylphenyl)-1,3 thiazole], the melting point was in the range of 190 to 192 °C.

The compound `CC(=O)Nc1cc(-c2sc(-c3ccc(S(C)(=O)=O)cc3)nc2-c2cccc(Cl)c2)ccn1` [H 58-6, N-[4-[4-(3-chlorophenyl)-2-(4-methylsulfonylphenyl)-1,3-thiazol-5-yl]-2-pyridyl]acetamide] displayed a melting point of 216 to 217 °C.

Compound `CC(C)(C)C(=O)Nc1cc(-c2sc(-c3ccc(S(C)(=O)=O)cc3)nc2-c2cccc(Cl)c2)ccn1` [H 58-8, N-[4-[4-(3-chlorophenyl)-2-(4-methylsulfonylphenyl)-1,3-thiazol-5-yl]-2-pyridyl]pivalamide] came in with a melting point of 122 to 123 °C.

As for `Cc1cc(C)cc(-c2nc(-c3ccc(S(C)(=O)=O)cc3)sc2-c2cc[n+]([O-])c(C)c2)c1` [H 59, 4 [4 (3,5 dimethylphenyl)-2 (4 methylsulfonylphenyl)-1,3-thiazol-5 yl]-2 methylpyridine N-oxide], the melting point was 255 to 256 °C.

For the compound `Cc1cccc(-c2nc(NC(=O)OCCCl)sc2-c2ccnc(C)c2)c1` [H 62, 2 chloroethyl [4 (3-methylphenyl)-5 (2 methyl-4 pyridyl)-1,3 thiazol-2-yl]carbamate], the melting point fell in the range of 156 to 158 °C.

In turn, `CONC(=O)Nc1nc(-c2cccc(C)c2)c(-c2ccnc(C)c2)s1` [H 63, N-methoxy-N′-[4 (3 methylphenyl)-5 (2 methyl-4 pyridyl)-1,3-thiazol-2 yl]urea] registered a melting point of 194 to 195 °C.

For the compound `Cc1cccc(-c2nc(NC(=O)NOc3ccccc3)sc2-c2ccnc(C)c2)c1` [H 64, N-[4 (3 methylphenyl)-5 (2-methyl-4 pyridyl)-1,3 thiazol-2 yl]-N′-phenyloxyurea], the melting point was 154 to 155 °C.

With `Cc1cccc(C2=NCSC2(c2ccnc(C)c2)N2CCOC2=O)c1` (stereo not drawn) [H 65, 3 [4 (3 methylphenyl)-5 (2 methyl-4 pyridyl)-1,3 thiazol-5-yl]-oxazolidin-2 one], the melting point was 80 to 82 °C.

With `Cc1cccc(-c2nc(N3CCNC3=O)sc2-c2ccnc(C)c2)c1` [H 66, 1 [4 (3 methylphenyl)-5 (2-methyl-4 pyridyl)-1,3 thiazol-2 yl]imidazolidin-2 one], the melting point is 200 to 201 °C.

`Cc1cccc(-c2nc(N3CCN(c4ccccc4)C3=O)sc2-c2ccnc(C)c2)c1` [H 67, 1 [4 (3 methylphenyl)-5 (2 methyl-4 pyridyl)-1,3 thiazol-2-yl]-3 phenylimidazolidin-2 one] came in with a melting point of 180 to 182 °C.

On to `Cc1cccc(-c2nc(-c3ccc(S(C)(=O)=O)cc3)sc2-c2cc[n+]([O-])c(C)c2)c1` [H 68-1, 4 [4 (3 methylphenyl)-2-(4 methylsulfonylphenyl)-1,3 thiazol-5 yl]-2 methylpyridine N-oxide], for which the melting point was 197 to 198 °C.

The compound `CCc1nc(-c2cccc(C)c2)c(-c2ccnc(CC#N)c2)s1` [H 71, 5 (2 cyanomethyl-4 pyridyl)-2 ethyl-4 (3 methylphenyl)-1,3-thiazole] yielded a melting point of 68 to 69 °C.

In the case of `Cc1cccc(-c2nc(-c3ccc(S(C)(=O)=O)cc3)sc2-c2ccnc(CO)c2)c1` [H 72, 4 [4 (3 methylphenyl)-2 (4 methylsulfonylphenyl)-1,3 thiazol-5 yl]-2 pyridylmethanol], the melting point lay in the range of 172 to 173 °C.

Consider `CCc1nc(-c2cccc(Br)c2)c(-c2ccnc(NC(=O)OC(C)(C)C)c2)s1` [H 75-1, 4 (3 bromophenyl)-5 [2-(tert-butoxycarbonylamino)-4 pyridyl]-2 ethyl-1,3 thiazole], for which the melting point lay in the range of 172 to 174 °C.

In turn, `CCc1nc(-c2cccc(Br)c2)c(-c2ccnc(N)c2)s1` [H 75-2, 4 [4 (3 bromophenyl)-2-ethyl-1,3 thiazol-5 yl]-2 pyridylamine] displayed a melting point of 132 to 134 °C.

As to `CCc1nc(-c2cccc(C#N)c2)c(-c2ccnc(N)c2)s1` [H 76, 4 [4 (3 cyanophenyl)-2 ethyl-1,3 thiazol-5 yl]-2 pyridylamine], the melting point is 178 to 179 °C.

`CCc1nc(-c2cccc(C(=O)O)c2)c(-c2ccnc(N)c2)s1` [H 77, 3 [5 (2 amino-4 pyridyl)-2 ethyl-1,3 thiazol-4 yl]benzoic acid] registered a melting point of 273 to 274 °C.

`CCc1nc(-c2cccc(C(=O)OC)c2)c(-c2ccnc(N)c2)s1` [H 78, methyl 3 [5 (2 amino-4 pyridyl)-2 ethyl-1,3 thiazol-4-yl]benzoate] came in with a melting point of 173 to 174 °C.

Regarding `CCc1nc(-c2ccccc2)c(-c2ccnc(NC(=O)OC(C)(C)C)c2)s1` [H 79-1, 5 [2 (tert-butoxycarbonylamino)-4 pyridyl]-2 ethyl-4 phenyl-1,3 thiazole], the melting point fell in the range of 154 to 155 °C.

`CC(C)(C)OC(=O)N1CCC(c2nc(-c3cccc(Cl)c3)c(-c3ccnc(N)c3)s2)CC1` [H 80, 4 [2 (1 tert-butoxycarbonylpiperidin-4 yl)-4 (3 chlorophenyl)-1,3 thiazol-5 yl]-2 pyridylamine] displayed a melting point of 143 to 145 °C.

As for `CCc1nc(-c2ccccc2)c(-c2ccnc(NC(C)=O)c2)s1` [H 82-1, N-[4 (2 ethyl-4 phenyl-1,3-thiazol-5 yl)-2 pyridyl]acetamide], the melting point is 175 to 176 °C.

`CCc1nc(-c2ccc(F)cc2)c(-c2ccnc(NC(C)=O)c2)s1` [H 82-2, N-[4 [2 ethyl-4 (4-fluorophenyl)-1,3 thiazol-5 yl]-2 pyridyl]acetamide] yielded a melting point of 190 to 191 °C.

`CCc1nc(-c2cccc(C(F)(F)F)c2)c(-c2ccnc(NC(C)=O)c2)s1` [H 82-3, N-[4 [2 ethyl-4 (3-trifluoromethylphenyl)-1,3 thiazol-5 yl]-2 pyridyl]acetamide] displayed a melting point of 146 to 147 °C.

`CCc1nc(-c2ccc(F)c(C)c2)c(-c2ccnc(NC(C)=O)c2)s1` [H 82-4, N-[4 [2 ethyl-4 (4 fluoro-3 methylphenyl)-1,3 thiazol-5 yl]-2 pyridyl]acetamide] showed a melting point of 142 to 143 °C.

Consider `CCc1nc(-c2cccc(F)c2)c(-c2ccnc(NC(C)=O)c2)s1` [H 82-5, N-[4 [2 ethyl-4 (3-fluorophenyl)-1,3 thiazol-5 yl]-2 pyridyl]acetamide], for which the melting point lay in the range of 141 to 142 °C.

For `CCc1nc(-c2ccc(Cl)cc2)c(-c2ccnc(NC(C)=O)c2)s1` [H 82-6, N-[4 [4 (4 chlorophenyl)-2-ethyl-1,3 thiazol-5 yl]-2 pyridyl]acetamide], the melting point was in the range of 190 to 191 °C.

The compound `CCc1cccc(-c2nc(CC)sc2-c2ccnc(NC(C)=O)c2)c1` [H 82-7, N-[4 [2 ethyl-4 (3-ethylphenyl)-1,3 thiazol-5 yl]-2 pyridyl]acetamide] had a melting point of 112 to 113 °C.

The compound `CCc1nc(-c2cccc(C(C)C)c2)c(-c2ccnc(NC(C)=O)c2)s1` [H 82-8, N-[4 [2 ethyl-4 [3 (1-methylethyl)phenyl]-1,3 thiazol-5 yl]-2 pyridyl]acetamide] yielded a melting point of 116 to 117 °C.

Consider `CCCc1cccc(-c2nc(CC)sc2-c2ccnc(NC(C)=O)c2)c1` [H 82-9, N-[4 [2 ethyl-4 (3-propylphenyl)-1,3 thiazol-5 yl]-2 pyridyl]acetamide], for which the melting point lay in the range of 121 to 122 °C.
